Assay [1] can be described thus: Antiproliferative activity against human TOV21G cells after 72 hrs by oxyluciferin luminescence assay.
The test system of a further assay is A-431. The assay can be described thus: Antiproliferative activity against human A431 cells after 72 hrs by oxyluciferin luminescence assay. The following applies: A-431, 72 h.
For a further assay, the system named is CCRF-CEM. The experiment in a line: Antiproliferative activity against human CCRF-CEM cells after 72 hrs by oxyluciferin luminescence assay.
In the next assay the test system is HCT-116. The experiment in a line: Antiproliferative activity against human HCT116 cells after 72 hrs by oxyluciferin luminescence assay. To be noted: HCT-116, 72 h.
In a further assay the test system is RKO. The experiment in a line: Antiproliferative activity against human RKO cells after 72 hrs by oxyluciferin luminescence assay.
Assay [2] can be described thus: Antiproliferative activity against human RPMI8266 cells after 72 hrs by oxyluciferin luminescence assay. The following applies: RPMI8266, 72 h.

Molecules are shown by their SMILES.

These results are taken from ChEMBL document CHEMBL3627672, “Structure-activity relationship study of syringolin A as a potential anticancer agent” (Bioorg Med Chem Lett, 2015).

By IC50 is commonly meant the concentration that gives 50% inhibition. Lower therefore signals greater potency in that assay. In the case of `CCCCC(=O)N[C@@H](Cc1ccccc1)C(=O)N[C@H]1/C=C/CCNC(=O)/C=C/[C@H](C(C)C)NC1=O`, the IC50 in assay [1] was determined as 427 nM; in the assay with A-431, 413 nM; with CCRF-CEM, 61.1 nM; in the assay on HCT-116, 402 nM; in the assay on RKO it was 415 nM; in assay [2], 138 nM.
For the compound `CCCCCC(=O)N[C@@H](Cc1ccccc1)C(=O)N[C@H]1/C=C/CCNC(=O)/C=C/[C@H](C(C)C)NC1=O`, the half-inhibitory concentration (IC50) in assay [1] was found to be 131 nM; in the assay with A-431, 128 nM; with CCRF-CEM, 28.6 nM; in the assay with HCT-116, 61.4 nM; in the assay on RKO, 52.6 nM; in assay [2] it was 42.6 nM.
With `CCCCCCC(=O)N[C@@H](Cc1ccccc1)C(=O)N[C@H]1/C=C/CCNC(=O)/C=C/[C@H](C(C)C)NC1=O`, the IC50 in assay [1] amounted to 60.7 nM; in the assay with A-431, 57.7 nM; with CCRF-CEM, 11.6 nM; in the assay on HCT-116, 24.5 nM; in the assay with RKO, 33.4 nM; in assay [2], 18.9 nM.
Consider `CCCCCCCC(=O)N[C@@H](Cc1ccccc1)C(=O)N[C@H]1/C=C/CCNC(=O)/C=C/[C@H](C(C)C)NC1=O`, for which the IC50 in assay [1] came to 19 nM; in the assay with A-431, 20.2 nM; with CCRF-CEM, 6.6 nM; in the assay with HCT-116, 14 nM; in the assay on RKO, 14.8 nM; in assay [2] it was 9.9 nM.
For `CCCCCCCCC(=O)N[C@@H](Cc1ccccc1)C(=O)N[C@H]1/C=C/CCNC(=O)/C=C/[C@H](C(C)C)NC1=O`, the IC50 came out at 10.4 nM in assay [1]; 18.2 nM in the assay with A-431; 1.8 nM in the assay on CCRF-CEM; 7.1 nM in the assay with HCT-116; 8.6 nM with RKO; 8.2 nM in assay [2].
Take `CCCCCCCCCCC(=O)N[C@@H](Cc1ccccc1)C(=O)N[C@H]1/C=C/CCNC(=O)/C=C/[C@H](C(C)C)NC1=O`: the IC50 in assay [1] came out at 19.3 nM; in the assay on A-431 it was 38.2 nM; with CCRF-CEM, 7.4 nM; in the assay on HCT-116, 36 nM; in the assay on RKO it was 19.2 nM; in assay [2], 14.4 nM.
Regarding `CCCCCCCCCCCC(=O)N[C@@H](Cc1ccccc1)C(=O)N[C@H]1/C=C/CCNC(=O)/C=C/[C@H](C(C)C)NC1=O`, the IC50 in assay [1] came to 27.5 nM; in the assay on A-431 it was 44.8 nM; in the assay on CCRF-CEM it was 14.8 nM; with HCT-116, 37.4 nM; in the assay on RKO, 33.6 nM; in assay [2], 29.6 nM.
With `CCCCCCCCCCCCC(=O)N[C@@H](Cc1ccccc1)C(=O)N[C@H]1/C=C/CCNC(=O)/C=C/[C@H](C(C)C)NC1=O`, the IC50 in assay [1] came to 48.3 nM; with A-431 it was 82.2 nM; with CCRF-CEM it was 36.9 nM; in the assay with HCT-116, 73.9 nM; with RKO it was 49.8 nM; in assay [2], 88.3 nM.
`CCCCCCCCCCCCCC(=O)N[C@@H](Cc1ccccc1)C(=O)N[C@H]1/C=C/CCNC(=O)/C=C/[C@H](C(C)C)NC1=O`: the 50% inhibitory concentration (IC50) turned out to be 425 nM in assay [1]; 430 nM in the assay with A-431; 409 nM with CCRF-CEM; 413 nM in the assay on HCT-116; 470 nM in the assay with RKO; 735 nM in assay [2].
Turning to `CCCCCCCCCC(=O)N[C@H](C(=O)N[C@H]1/C=C/CCNC(=O)/C=C/[C@H](C(C)C)NC1=O)c1ccccc1`, the IC50 in assay [1] was 9.5 nM; in the assay with A-431 it was 27.8 nM; in the assay with CCRF-CEM, 11 nM; in the assay with HCT-116, 45.1 nM; in the assay on RKO, 20.8 nM; in assay [2], 26.9 nM.
In the case of `CCCCCCCCCC(=O)N[C@@H](CCc1ccccc1)C(=O)N[C@H]1/C=C/CCNC(=O)/C=C/[C@H](C(C)C)NC1=O`, the 50% inhibitory concentration (IC50) in assay [1] was 9.6 nM; in the assay on A-431, 16.8 nM; in the assay with CCRF-CEM, 11.6 nM; with HCT-116, 28.4 nM; with RKO it was 27 nM; in assay [2], 14.9 nM.
With `CCCCCCCCCC(=O)N[C@@H](CCCc1ccccc1)C(=O)N[C@H]1/C=C/CCNC(=O)/C=C/[C@H](C(C)C)NC1=O`, the IC50 in assay [1] came out at 8.5 nM; in the assay on A-431, 31.7 nM; with CCRF-CEM, 9.4 nM; with HCT-116, 40.6 nM; with RKO it was 39.8 nM; in assay [2], 23.5 nM.
As to `CCCCCCCCCC(=O)N[C@@H](CC1CCCCC1)C(=O)N[C@H]1/C=C/CCNC(=O)/C=C/[C@H](C(C)C)NC1=O`, the half-inhibitory concentration (IC50) in assay [1] turned out to be 48.9 nM; in the assay on A-431, 52.8 nM; in the assay with CCRF-CEM, 21.4 nM; in the assay on HCT-116, 38.6 nM; in the assay on RKO, 35.1 nM; in assay [2], 21 nM.
As to `CCCCCCCCCC(=O)N[C@@H](Cc1ccccc1F)C(=O)N[C@H]1/C=C/CCNC(=O)/C=C/[C@H](C(C)C)NC1=O`, the half-maximal inhibitory concentration (IC50) turned out to be 8.2 nM in assay [1]; 14.9 nM in the assay with A-431; 3.3 nM with CCRF-CEM; 7.1 nM with HCT-116; 6.8 nM in the assay with RKO; 5.6 nM in assay [2].
As to `CCCCCCCCCC(=O)N[C@@H](Cc1cccc(F)c1)C(=O)N[C@H]1/C=C/CCNC(=O)/C=C/[C@H](C(C)C)NC1=O`, the half-maximal inhibitory concentration (IC50) in assay [1] was 21.1 nM; with A-431 it was 27.7 nM; in the assay with CCRF-CEM, 5.5 nM; in the assay on HCT-116 it was 15 nM; in the assay on RKO it was 11.8 nM; in assay [2], 8.8 nM.
Turning to `CCCCCCCCCC(=O)N[C@@H](Cc1ccc(F)cc1)C(=O)N[C@H]1/C=C/CCNC(=O)/C=C/[C@H](C(C)C)NC1=O`, the IC50 in assay [1] was determined as 19 nM; in the assay on A-431, 33.2 nM; in the assay on CCRF-CEM, 4.9 nM; in the assay on HCT-116 it was 23.1 nM; in the assay on RKO, 14.8 nM; in assay [2], 8.6 nM.
Regarding `CCCCCCCCCC(=O)N[C@@H](Cc1ccccc1Cl)C(=O)N[C@H]1/C=C/CCNC(=O)/C=C/[C@H](C(C)C)NC1=O`, the IC50 in assay [1] was determined as 7.1 nM; in the assay with A-431, 9.9 nM; in the assay on CCRF-CEM, 8.2 nM; in the assay with HCT-116, 8.7 nM; in the assay with RKO it was 7.4 nM; in assay [2] it was 8.8 nM.
For `CCCCCCCCCC(=O)N[C@@H](Cc1cccc(Cl)c1)C(=O)N[C@H]1/C=C/CCNC(=O)/C=C/[C@H](C(C)C)NC1=O`, the IC50 worked out at 13.8 nM in assay [1]; 18.4 nM with A-431; 5.2 nM with CCRF-CEM; 15.6 nM in the assay on HCT-116; 14.9 nM with RKO; 9.4 nM in assay [2].
As to `CCCCCCCCCC(=O)N[C@@H](Cc1ccc(Cl)cc1)C(=O)N[C@H]1/C=C/CCNC(=O)/C=C/[C@H](C(C)C)NC1=O`, the 50% inhibitory concentration (IC50) was 12.3 nM in assay [1]; 23.3 nM in the assay with A-431; 4.5 nM with CCRF-CEM; 21.7 nM with HCT-116; 19.6 nM with RKO; 12 nM in assay [2].
With `CCCCCCCCCC(=O)N[C@@H](Cc1ccccc1Br)C(=O)N[C@H]1/C=C/CCNC(=O)/C=C/[C@H](C(C)C)NC1=O`, the IC50 in assay [1] was found to be 9.6 nM; with A-431, 13.4 nM; with CCRF-CEM, 3.9 nM; in the assay with HCT-116, 13.4 nM; with RKO, 13 nM; in assay [2], 9.4 nM.
In the case of `CCCCCCCCCC(=O)N[C@@H](Cc1cccc(Br)c1)C(=O)N[C@H]1/C=C/CCNC(=O)/C=C/[C@H](C(C)C)NC1=O`, the half-maximal inhibitory concentration (IC50) in assay [1] was 12.8 nM; with A-431 it was 15.5 nM; in the assay on CCRF-CEM, 4.6 nM; in the assay on HCT-116, 18 nM; with RKO it was 16.3 nM; in assay [2] it was 9.6 nM.
Take `CCCCCCCCCC(=O)N[C@@H](Cc1ccc(Br)cc1)C(=O)N[C@H]1/C=C/CCNC(=O)/C=C/[C@H](C(C)C)NC1=O`: the IC50 was 24.1 nM in assay [1]; 25.6 nM in the assay on A-431; 18.4 nM in the assay on CCRF-CEM; 33.4 nM in the assay with HCT-116; 33.7 nM with RKO; 28.3 nM in assay [2].
Consider `CCCCCCCCCC(=O)N[C@@H](Cc1ccccc1C)C(=O)N[C@H]1/C=C/CCNC(=O)/C=C/[C@H](C(C)C)NC1=O`, for which the IC50 was found to be 6.2 nM in assay [1]; 8.9 nM with A-431; 3.6 nM in the assay on CCRF-CEM; 12 nM with HCT-116; 9.5 nM in the assay with RKO; 8.8 nM in assay [2].
As to `CCCCCCCCCC(=O)N[C@@H](Cc1cccc(C)c1)C(=O)N[C@H]1/C=C/CCNC(=O)/C=C/[C@H](C(C)C)NC1=O`, the half-inhibitory concentration (IC50) in assay [1] is 6.2 nM; in the assay with A-431, 6.9 nM; with CCRF-CEM, 3.5 nM; in the assay with HCT-116, 7 nM; with RKO, 7.3 nM; in assay [2], 8.4 nM.
On to `CCCCCCCCCC(=O)N[C@@H](Cc1ccc(C)cc1)C(=O)N[C@H]1/C=C/CCNC(=O)/C=C/[C@H](C(C)C)NC1=O`, for which the IC50 in assay [1] came out at 9.1 nM; in the assay on A-431 it was 18.9 nM; in the assay with CCRF-CEM it was 1.9 nM; in the assay with HCT-116, 28.1 nM; in the assay with RKO, 15.5 nM; in assay [2], 4.8 nM.
On to `CCCCCCCCCC(=O)N[C@@H](Cc1ccc(O)cc1)C(=O)N[C@H]1/C=C/CCNC(=O)/C=C/[C@H](C(C)C)NC1=O`, for which the IC50 in assay [1] came to 151 nM; with A-431, 134 nM; in the assay with CCRF-CEM, 32.3 nM; with HCT-116, 68.5 nM; in the assay on RKO, 43.7 nM; in assay [2], 28.3 nM.
Regarding `CCCCCCCCCC(=O)N[C@@H](Cc1ccccn1)C(=O)N[C@H]1/C=C/CCNC(=O)/C=C/[C@H](C(C)C)NC1=O`, the IC50 in assay [1] was 10.7 nM; with A-431, 23.5 nM; in the assay with CCRF-CEM it was 8.6 nM; in the assay on HCT-116 it was 19.2 nM; in the assay with RKO, 18.2 nM; in assay [2], 15 nM.
On to `CCCCCCCCCC(=O)N[C@@H](Cc1cccnc1)C(=O)N[C@H]1/C=C/CCNC(=O)/C=C/[C@H](C(C)C)NC1=O`, for which the 50% inhibitory concentration (IC50) in assay [1] turned out to be 5.1 nM; in the assay with A-431, 24.4 nM; in the assay with CCRF-CEM, 27.5 nM; in the assay on HCT-116, 29.4 nM; with RKO, 17.1 nM; in assay [2] it was 15.5 nM.
